Assay [1] is described as follows: Use as a growth factor in weaned piglets (Example 5). It is filed as in vivo, weaned Large-White Belgian Landrace crossed piglets. Particulars: for Weight gain / Consumption / Intermediate Weight / Initial weight / Index of consumption: 40 ppm in feed; for Initial weight: start of period 14-28 days; for Index of consumption: consumption/weight gain ratio.
The nature of assay [2]: Use as a growth factor in piglets (Example 6). It is filed as in vivo, weaned Large-White Belgian Landrace crossed piglets. The conditions noted are these: 40 ppm in feed; for Final weight: control 24.7. From the text: 130 weaned Large-White Belgian Landrace crossed piglets were used. The experiment began 2 weeks after weaning of the animals, i.e. at a mean age of 42 days.
The animals received the experimental feed ad libitum in the form of granules 2.5 mm in diameter.
The animals were weighed at the beginning, middle and end of the experiment. The consumptions were noted every week.
Tables 7, 8 and 9 respectively show the percentage composition and the characteristics of the diets, the percentage composition of the CMV and the percentage composition of the premixes.
The results are shown in Table 10 for the period 0-14 days, Table 11 for the period 14-28 days and Table 12 for the period 0-28 days.

Where [3] appears, read: Table 4, 0-14 days, control 15.3.
[4] abbreviates: Table 5, 14-28 days, control 23.1.
[5] abbreviates: Table 6, 0-28 days, control 23.1.

The values that follow come from patent US5254533A, “Elfamycin” (Rhone-Poulenc Rorer S.A., priority 1990, dated 1993).

Consider `CC[C@H]1OC(=O)C[C@@H](O)[C@H](C)[C@@H](O[C@@H]2O[C@H](C)[C@@H](O[C@H]3C[C@@](C)(O)[C@@H](O)[C@H](C)O3)[C@H](N(C)C)[C@H]2O)[C@@H](CC=O)C[C@@H](C)C(=O)/C=C/C(C)=C/[C@@H]1CO[C@@H]1O[C@H](C)[C@@H](O)[C@@H](OC)[C@H]1OC` [tylosin, reference compound], for which the Weight gain in assay [1] (0-14 days, control 329) came out at 351 g/day; in assay [1] (0-28 days, control 445) it was 470 g/day; in assay [1] (14-28 days, control 560) it was 588 g/day. Moreover, the Consumption in assay [1] (0-14 days, control 614) was 619 g/day; in assay [1] (0-28 days, control 822), 826 g/day; in assay [1] (14-28 days, control 1031), 1033 g/day. The “Intermediate Weight” value in assay [1] (setting [3]) worked out at 15.6 kg; in assay [1] (setting [4]) it was 23.8 kg; in assay [1] (setting [5]), 23.8 kg. Moreover, the Initial weight in assay [1] (control 15.3) is 15.6 kg. In addition, the Index of consumption in assay [1] (0-14 days, control 1.88) came out at 1.79; in assay [1] (0-28 days, control 1.85), 1.76; in assay [1] (14-28 days, control 1.86) it was 1.76.
As to “spiramycin embonate [reference compound]”, the Weight gain stood at 393 g/day in assay [1] (0-14 days, control 329); 518 g/day in assay [1] (0-28 days, control 445); 647 g/day in assay [1] (14-28 days, control 560); 423 g/day in assay [2] (0-14 days, control 368); 532 g/day in assay [2] (0-28 days, control 474); 640 g/day in assay [2] (14-28 days, control 579). In addition, the Consumption worked out at 668 g/day in assay [1] (0-14 days, control 614); 908 g/day in assay [1] (0-28 days, control 822); 1147 g/day in assay [1] (14-28 days, control 1031); 715 g/day in assay [2] (0-14 days, control 645); 923 g/day in assay [2] (0-28 days, control 852); 1130 g/day in assay [2] (14-28 days, control 1059). Besides, the “Intermediate Weight” value came out at 16.3 kg in assay [1] (setting [3]), 25.4 kg in assay [1] (setting [4]) and 25.4 kg in assay [1] (setting [5]). For the same compound, in assay [1] (control 15.3), the Initial weight is 16.3 kg. Further, the Index of consumption was 1.72 in assay [1] (0-14 days, control 1.88); 1.75 in assay [1] (0-28 days, control 1.85); 1.79 in assay [1] (14-28 days, control 1.86); 1.70 in assay [2] (0-14 days, control 1.76); 1.73 in assay [2] (0-28 days, control 1.80); 1.77 in assay [2] (14-28 days, control 1.84). Moreover, the “effect on consumption (in words)” value in assay [1] (first period 0-14 days) is reported as “increase in consumption”; in assay [1] (overall period 0-28 days) it was “significantly increased”. For the same compound, the “effect on growth (in words)” value is reported as “significantly increased” in assay [1] (overall period 0-28 days, relative to basic diet) and “significantly improved” in assay [1] (second period 14-28 days). For the same compound, the Final weight in assay [2] (Table 11, 14-28 days) came to 26.3 kg; in assay [2] (Table 12, 0-28 days), 26.3 kg.
